# Measured values published in ChEMBL document CHEMBL1201862, “PubChem BioAssay data set” (2004).
#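 Results reflect a 48-hour exposure of cells in 96-well plates to compound at five concentrations. GI50: concentration for 50% inhibition of growth.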 The source made the active and inactive calls. Cut-off read from the data, not from the text of the source: active = GI50 up to about 1.1 µM and inactive = higher.
# Columns and labels:
# Assay in all cases: inhibition of tumour cell growth, NCI panel, 48 h
# NCI-H23 = tested on: NCI-H23
# HCT-116 = tested on: HCT-116
# HCT-15 = tested on: HCT-15
# SF-295 = tested on: SF-295
# SK-OV-3 = tested on: SK-OV-3
# EKVX = tested on: EKVX
# DU-145 = tested on: DU-145
# UACC-257 = tested on: UACC-257
# OVCAR-5 = tested on: OVCAR-5
# SNB-75 = tested on: SNB-75
# SF-268 = tested on: SF-268
# HOP-62 = tested on: HOP-62
# SN12C = tested on: SN12C
# KM12 = tested on: KM12
# TK-10 = tested on: TK-10
# MOLT-4 = tested on: MOLT-4
# SW-620 = tested on: SW-620
# NCI-H460 = tested on: NCI-H460
# RXF 393 = tested on: RXF 393
# HCC 2998 = tested on: HCC 2998
SMILES,GI50 (NCI-H23),GI50 (HCT-116),GI50 (HCT-15),GI50 (SF-295),GI50 (SK-OV-3),GI50 (EKVX),GI50 (DU-145),GI50 (UACC-257),GI50 (OVCAR-5),GI50 (SNB-75),GI50 (SF-268),GI50 (HOP-62),GI50 (SN12C),GI50 (KM12),GI50 (TK-10),GI50 (MOLT-4),GI50 (SW-620),GI50 (NCI-H460),GI50 (RXF 393),GI50 (HCC 2998)
CCn1c2c(c3ccccc3c1=O)C(=O)c1ccccc1-2,> 100 µM (inactive),> 100 µM (inactive),> 100 µM,> 100 µM (inactive),> 100 µM (inactive),> 100 µM (inactive),> 100 µM (inactive),> 100 µM (inactive),> 100 µM (inactive),> 100 µM (inactive),> 100 µM (inactive),> 100 µM (inactive),> 100 µM (inactive),> 100 µM (inactive),> 100 µM (inactive),3.12 µM (inactive),> 100 µM (inactive),–,–,–
COc1ccc(C(O)(c2ccccc2)c2nccc3ccccc23)cc1 (stereo unspecified),16.6 µM (inactive),4.76 µM (inactive),4.58 µM,6.76 µM (inactive),4.06 µM (inactive),11.9 µM (inactive),6.22 µM (inactive),7.74 µM (inactive),11.5 µM (inactive),–,12.4 µM (inactive),5.28 µM (inactive),22.1 µM (inactive),5.71 µM (inactive),27.8 µM (inactive),2.29 µM (inactive),–,5.82 µM (inactive),3.19 µM (inactive),–
CC1(C)CCCCCCCCCC2CC2CCC(C)(C)C1=O (stereo unspecified),40.5 µM (inactive),16.6 µM (inactive),16.5 µM,18.3 µM (inactive),34 µM (inactive),20.2 µM (inactive),20.5 µM (inactive),23.6 µM (inactive),21.2 µM (inactive),28.6 µM (inactive),22.4 µM (inactive),21.8 µM (inactive),18.4 µM (inactive),18.4 µM (inactive),22.9 µM (inactive),28.5 µM (inactive),35.9 µM (inactive),21.1 µM (inactive),15.4 µM (inactive),–
C=CCN1CCC(O)(c2cc(C(=O)OCC)[nH]c2-c2cc(C)no2)C1 (stereo unspecified),> 100 µM (inactive),> 100 µM (inactive),> 100 µM,> 100 µM (inactive),> 100 µM (inactive),> 100 µM (inactive),> 100 µM (inactive),> 100 µM (inactive),> 100 µM (inactive),> 100 µM (inactive),> 100 µM (inactive),–,> 100 µM (inactive),> 100 µM (inactive),> 100 µM (inactive),> 100 µM (inactive),> 100 µM (inactive),> 100 µM (inactive),> 100 µM (inactive),–
C/C=C1\CN2CCc3c([nH]c4ccccc34)C2CC1CCO (stereo unspecified),> 100 µM (inactive),> 100 µM (inactive),> 100 µM,> 100 µM (inactive),> 100 µM (inactive),> 100 µM (inactive),–,> 100 µM (inactive),> 100 µM (inactive),28.8 µM (inactive),> 100 µM (inactive),> 100 µM (inactive),> 100 µM (inactive),> 100 µM (inactive),> 100 µM (inactive),> 100 µM (inactive),> 100 µM (inactive),> 100 µM (inactive),> 100 µM (inactive),> 100 µM (inactive)
COc1cc(C2c3cccc4cccc(c34)C3CCC(=O)N32)cc(OC)c1O (stereo unspecified),> 50 µM (inactive),> 50 µM (inactive),> 50 µM,> 50 µM (inactive),> 50 µM (inactive),> 50 µM (inactive),> 50 µM (inactive),> 50 µM (inactive),> 50 µM (inactive),> 50 µM (inactive),–,> 50 µM (inactive),> 50 µM (inactive),> 50 µM (inactive),–,> 50 µM (inactive),> 50 µM (inactive),> 50 µM (inactive),> 50 µM (inactive),–
O=c1c(Cc2ccccc2)c(O)cc2n1CCC2,> 100 µM (inactive),> 100 µM (inactive),> 100 µM,> 100 µM (inactive),> 100 µM (inactive),> 100 µM (inactive),–,> 100 µM (inactive),> 100 µM (inactive),> 100 µM (inactive),> 100 µM (inactive),> 100 µM (inactive),> 100 µM (inactive),> 100 µM (inactive),> 100 µM (inactive),> 100 µM (inactive),> 100 µM (inactive),> 100 µM (inactive),> 100 µM (inactive),> 100 µM (inactive)
CC1[C@@]2(CCC(C)(C)O2)O[C@@H]2C=C3C4CCC5Cc6nc7c(nc6C[C@@]5(C)C4C[C@H](O)[C@@]3(C)[C@]12O)CC1CCC2C3=C[C@H]4O[C@@]5(O[C@@](C)(CO)C[C@@H]5O)C(C)[C@@]4(O)[C@]3(C)[C@@H](O)CC2[C@]1(C)C7 (stereo partly specified),0.118 µM (active),0.12 µM (active),0.169 µM,0.00807 µM (active),0.0863 µM (active),0.175 µM (active),–,0.138 µM (active),0.142 µM (active),0.00762 µM (active),0.05 µM (active),0.0272 µM (active),0.975 µM (active),0.109 µM (active),0.681 µM (active),0.0217 µM (active),0.064 µM (active),0.0388 µM (active),0.00641 µM (active),0.624 µM (active)
O=C(O)CNc1ccc(C(=O)O)cc1,> 100 µM (inactive),> 100 µM (inactive),> 100 µM,> 100 µM (inactive),> 100 µM (inactive),> 100 µM (inactive),> 100 µM (inactive),> 100 µM (inactive),> 100 µM (inactive),> 100 µM (inactive),> 100 µM (inactive),> 100 µM (inactive),> 100 µM (inactive),> 100 µM (inactive),> 100 µM (inactive),> 100 µM (inactive),> 100 µM (inactive),> 100 µM (inactive),> 100 µM (inactive),–
COc1nc(C#CC2(O)CCCCC2)nc(OC)n1,13.7 µM (inactive),9.4 µM (inactive),2.69 µM,18 µM (inactive),53.6 µM (inactive),18.1 µM (inactive),6.79 µM (inactive),14.6 µM (inactive),12.7 µM (inactive),19.4 µM (inactive),14.3 µM (inactive),34.2 µM (inactive),12.4 µM (inactive),15.8 µM (inactive),–,3.53 µM (inactive),8.91 µM (inactive),24.3 µM (inactive),12.9 µM (inactive),–
CC(C)C1=Cc2ccc3c(c2C(=O)C1=O)CCCC3(C)C [MILTIRONE],13.7 µM (inactive),1.81 µM (inactive),1.99 µM,17.2 µM (inactive),18.1 µM (inactive),14.5 µM (inactive),–,3.08 µM (inactive),19.4 µM (inactive),15.3 µM (inactive),6.9 µM (inactive),19.6 µM (inactive),5.56 µM (inactive),16.1 µM (inactive),3.14 µM (inactive),2.19 µM (inactive),3.15 µM (inactive),17.3 µM (inactive),1.85 µM (inactive),18.4 µM (inactive)
